Patent US8546381B2, “Bridged heterocyclic compounds and methods of use” (Medivation Technologies, Inc., priority 2008, dated 2013)

What was measured:
[1] = biological target: T1, human recombinant histamine H1 receptor (Homo sapiens, UniProt P35367); assay: Histamine H1 radioligand binding ([3H]Pyrilamine); conditions: compound at 1 μM; inhibition of specific [3H]Pyrilamine binding; read-out: Histamine Binding (1 μM) H1, Percentage Inhibition
T1 construct: expressed in transfected cells; host or cells: CHO cells
T1 sequence (P35367 whole entry): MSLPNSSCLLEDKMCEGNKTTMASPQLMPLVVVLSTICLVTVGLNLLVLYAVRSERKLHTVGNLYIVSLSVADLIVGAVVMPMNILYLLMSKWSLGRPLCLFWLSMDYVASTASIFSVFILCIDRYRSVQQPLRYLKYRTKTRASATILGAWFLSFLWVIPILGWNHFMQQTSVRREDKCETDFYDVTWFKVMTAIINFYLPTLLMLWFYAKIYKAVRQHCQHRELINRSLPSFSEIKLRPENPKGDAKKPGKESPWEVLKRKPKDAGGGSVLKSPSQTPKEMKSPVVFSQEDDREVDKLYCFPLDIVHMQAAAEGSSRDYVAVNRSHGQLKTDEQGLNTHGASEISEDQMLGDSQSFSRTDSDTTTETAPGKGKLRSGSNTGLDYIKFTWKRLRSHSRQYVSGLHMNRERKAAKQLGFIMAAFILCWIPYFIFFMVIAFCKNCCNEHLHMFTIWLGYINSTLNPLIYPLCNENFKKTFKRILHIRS
Protocol: To evaluate in radioligand binding assays the activity of compounds of the invention, human recombinant histamine H1 receptor expressed in Chinese hamster ovary (CHO) cells (De Backer, M. D. et al., Biochem. Biophys. Res. Comm. 197(3):1601, 1993) in a modified Tris-HCl buffer (50 mM Tris-HCl, pH 7.4, 2 mM MgCl2, 100 mM NaCl, 250 mM Sucrose) was used. Compounds of the invention were incubated with 1.2 nM [^3H]Pyrilamine for 180 minutes at 25° C. Non-specific binding was estimated in the presence of 1 μM pyrilamine. Receptor proteins were filtered and washed, the filters were then counted to determine [^3H]Pyrilamine specifically bound. Compounds were screened at 1 μM or lower, using 1% DMSO as vehicle. Biochemical assay results are presented as the percent inhibition of specific binding in Table 2.

[2] = biological target: T2, human recombinant histamine H2 receptor (Homo sapiens, UniProt P25021); assay: Histamine H2 radioligand binding ([125I]Aminopotentidine); conditions: compound at 1 μM; inhibition of specific [125I]Aminopotentidine binding; read-out: Histamine Binding (1 μM) H2, Percentage Inhibition
T2 construct: expressed in transfected cells; host or cells: CHO-K1 cells
T2 sequence (P25021 whole entry): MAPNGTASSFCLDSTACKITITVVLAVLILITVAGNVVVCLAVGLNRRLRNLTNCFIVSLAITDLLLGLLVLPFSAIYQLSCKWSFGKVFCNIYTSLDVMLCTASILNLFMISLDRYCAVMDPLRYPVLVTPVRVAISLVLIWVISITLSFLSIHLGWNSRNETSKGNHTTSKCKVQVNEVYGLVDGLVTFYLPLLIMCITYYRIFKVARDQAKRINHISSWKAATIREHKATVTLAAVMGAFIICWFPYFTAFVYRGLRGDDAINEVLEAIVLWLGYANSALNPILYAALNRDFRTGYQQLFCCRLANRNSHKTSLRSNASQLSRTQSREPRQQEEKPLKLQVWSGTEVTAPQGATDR
Protocol: To evaluate in radioligand binding assays the activity of compounds of the invention, human recombinant histamine H2 receptor expressed in Chinese hamster ovary (CHO) K1 cells (Ruat, M., Proc. Natl. Acad. Sci. USA. 87(5):1658, 1990) in a 50 mM Phosphate buffer, pH 7.4 was used. Compounds of the invention were incubated with 0.1 nM [^125I]Aminopotentidine for 120 minutes at 25° C. Non-specific binding was estimated in the presence of 3 μM Tiotidine. Receptor proteins were filtered and washed, the filters were then counted to determine [^125I]Aminopotentidine specifically bound. Compounds were screened at 1 μM or lower, using 1% DMSO as vehicle. Biochemical assay results are presented as the percent inhibition of specific binding in Table 2.

[3] = biological target: T3, human recombinant adrenergic α1D receptor (Homo sapiens, UniProt P25100); assay: Adrenergic α1D radioligand binding ([3H]Prozosin); conditions: 1 μM; read-out: Adrenergic α1D, inhibition of ligand binding (1 μM)
T3 construct: expressed in transfected cells; host or cells: HEK-293 cells
T3 sequence (P25100 1-572): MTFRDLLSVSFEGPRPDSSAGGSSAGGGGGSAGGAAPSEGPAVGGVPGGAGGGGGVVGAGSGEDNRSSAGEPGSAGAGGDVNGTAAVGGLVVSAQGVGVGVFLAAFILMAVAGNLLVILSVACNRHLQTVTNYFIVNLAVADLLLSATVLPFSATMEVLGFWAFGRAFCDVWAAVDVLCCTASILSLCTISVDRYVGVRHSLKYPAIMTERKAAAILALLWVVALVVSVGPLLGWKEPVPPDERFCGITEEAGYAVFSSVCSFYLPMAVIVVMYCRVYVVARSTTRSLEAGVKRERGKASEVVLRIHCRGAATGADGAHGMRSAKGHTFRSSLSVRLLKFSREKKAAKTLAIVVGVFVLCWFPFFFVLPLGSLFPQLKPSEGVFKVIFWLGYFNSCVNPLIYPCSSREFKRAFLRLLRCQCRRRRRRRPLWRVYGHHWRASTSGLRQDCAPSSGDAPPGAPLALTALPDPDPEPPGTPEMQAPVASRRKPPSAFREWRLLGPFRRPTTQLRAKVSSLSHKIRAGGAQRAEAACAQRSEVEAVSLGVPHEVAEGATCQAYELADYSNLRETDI
Protocol: To evaluate in radioligand binding assays the activity of compounds of the invention, human recombinant adrenergic α1D receptor expressed in human embryonic kidney (HEK-293) cells (Kenny, B. A. et al. Br. J. Pharmacol. 115(6):981, 1995) in a 50 mM Tris-HCl buffer, pH 7.4, was used. Compounds of invention were incubated with 0.6 nM [^3H]Prozosin for 60 minutes at 25° C. Non-specific binding was estimated in the presence of 10 μM phentolamine. Receptor proteins were filtered and washed, the filters were then counted to determine [^3H]Prozosin specifically bound. Compounds were screened at 1 μM or lower, using 1% DMSO as vehicle. Biochemical assay results are presented as the percent inhibition of specific binding in Table 3.

[4] = biological target: T4, human recombinant serotonin (5-Hydroxytryptamine) 5-HT2C receptor (Homo sapiens, UniProt P28335); assay: Serotonin 5-HT2C radioligand binding ([3H]Mesulergine); conditions: read-out: Serotonin 5-HT2C, inhibition of ligand binding (1 μM)
T4 construct: expressed in transfected cells; host or cells: CHO-K1 cells
T4 sequence (P28335 33-458): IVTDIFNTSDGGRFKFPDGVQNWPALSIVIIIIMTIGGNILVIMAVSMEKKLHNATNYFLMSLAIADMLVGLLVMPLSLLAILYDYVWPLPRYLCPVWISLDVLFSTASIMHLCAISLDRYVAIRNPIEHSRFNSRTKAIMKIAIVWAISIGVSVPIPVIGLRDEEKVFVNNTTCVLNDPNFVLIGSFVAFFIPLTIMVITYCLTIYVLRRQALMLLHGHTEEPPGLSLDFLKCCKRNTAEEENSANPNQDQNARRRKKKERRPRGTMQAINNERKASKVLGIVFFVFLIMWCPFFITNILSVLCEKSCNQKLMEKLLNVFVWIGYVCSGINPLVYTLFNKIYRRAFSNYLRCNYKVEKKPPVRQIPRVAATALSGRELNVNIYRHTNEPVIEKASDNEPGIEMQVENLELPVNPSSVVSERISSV
Protocol: To evaluate in radioligand binding assays the activity of compounds of the invention, human recombinant serotonin (5-Hydroxytryptamine) 5-HT2C receptor expressed in Chinese hamster ovary (CHO-K1) cells (Wolf, W. A. and Schutz, J. S., J. Neurochem. 69:1449, 1997) in a modified Tris-HCl buffer (50 mM Tris-HCl, pH 7.4, 0.1% Ascorbic Acid, 10 μM Pargyline) was used. Compounds of the invention were incubated with 1 nM [^3H]Mesulergine for 60 minutes at 25° C. Non-specific binding was estimated in the presence of 1 μM Mianserin. Receptor proteins were filtered and washed, the filters were then counted to determine [^3H]Mesulergine specifically bound. Compounds were screened at 1 μM or lower, using 1% DMSO as vehicle. Biochemical assay results are presented as the percent inhibition of specific binding in Table 4.

SMILES | inhibition at 1 µM [1] | inhibition at 1 µM [2] | inhibition at 1 µM [3] | inhibition at 1 µM [4]
CN1C2CCC1c1c(n(CC(=O)N3CCCC3)c3ccc(Cl)cc13)C2 (centres unmarked) [Compound 60] | 21% | 3% | 1% | 15%
Cc1ccc(CCn2c3c(c4cc(Cl)ccc42)C2CCC(C3)N2C)cc1 (centres unmarked) [Compound 61] | 98% | 52% | 80% | 86%
Cc1ccc2c(c1)c1c(n2CCc2ccc(F)cc2)CC2CCC1N2C (centres unmarked) [Compound 62] | 98% | 52% | 83% | 87%
CCOC(=O)CCn1c2c(c3cc(Cl)ccc31)C1CCC(C2)N1C (centres unmarked) [Compound 70, ethyl 3-(2-chloro-11-methyl-5,6,7,8,9,10-hexahydro-7,10-iminocyclohept[b]indol-5-yl)propanoate] | 65% | 7% | 26% | 4%
CN1C2CCC1c1c(n(CCC(=O)O)c3ccc(Cl)cc13)C2 (centres unmarked) [Compound 72] | 14% | 7% | -9% | -4%
CN1C2CCC1c1c(n(CCC(N)=O)c3ccc(Cl)cc13)C2 (centres unmarked) [Compound 73] | 10% | -1% | 19% | 5%
CN1C2CCC1c1c(n(CCc3ccc(C(F)(F)F)nc3)c3cc(F)c(Cl)cc13)C2 (centres unmarked) [Compound 77] | 32% | 7% | 37% | -8%
Cc1ccc(CCn2c3c(c4cc(Cl)ccc42)C2CCC(C3)N2C)cn1 (centres unmarked) [Compound 79] | 93% | 1% | 72% | 13%
CN1C2CCC1c1c(n(CCc3cccnc3)c3ccc(Cl)cc13)C2 (centres unmarked) [Compound 80] | 94% | -3% | 54% | 16%
Cc1ccc2c(c1)c1c(n2CCc2cnc(C)nc2)CC2CCC1N2C (centres unmarked) [Compound 81] | 51% | -9% | 42% | 25%
Cc1ncc(CCn2c3c(c4cc(Cl)ccc42)C2CCC(C3)N2C)cn1 (centres unmarked) [Compound 82] | 44% | -8% | 40% | 60%
COc1ccc(CCn2c3c(c4cc(C)ccc42)C2CCC(C3)N2C)cc1 (centres unmarked) [Compound 83] | 98% | 15% | 80% | 82%
COc1ccc(CCn2c3c(c4cc(Cl)ccc42)C2CCC(C3)N2C)cc1 (centres unmarked) [Compound 84] | 83% | 63% | 19% | 93%
Cc1ccc2c(c1)c1c(n2CCCc2ccc(Cl)cc2)CC2CCC1N2C (centres unmarked) [Compound 85] | 99% | 81% | 43% | 89%
Cc1ccc2c(c1)c1c(n2CCc2cccnc2)CC2CCC1N2C (centres unmarked) [Compound 86] | 99% | 26% | 87% | 72%
CN1C2CCC1c1c(n(CCc3cncc(Cl)c3)c3ccc(Cl)cc13)C2 (centres unmarked) [Compound 87] | 96% | 7% | 70% | 30%
Cc1ccc2c(c1)c1c(n2CCc2cncc(Cl)c2)CC2CCC1N2C (centres unmarked) [Compound 88] | 95% | 5% | 73% | 31%
Cc1cncc(CCn2c3c(c4cc(Cl)ccc42)C2CCC(C3)N2C)c1 (centres unmarked) [Compound 89] | 92% | -1% | 44% | 26%
Cc1cncc(CCn2c3c(c4cc(C)ccc42)C2CCC(C3)N2C)c1 (centres unmarked) [Compound 90] | 93% | -1% | 40% | 27%
Cc1ccc2c(c1)c1c(n2CC(O)c2ccc(C)nc2)CC2CCC1N2C (centres unmarked) [Compound 91] | 51% | 9% | 24% | -4%
Cc1ccc(CCn2c3c(c4ccccc42)C2CCC(C3)N2C)cn1 (centres unmarked) [Compound 92] | 54% | 11% | 8% | 9%
Cc1ccc2c(c1)c1c(n2CC(=O)N2CCCCC2)CC2CCC1N2C (centres unmarked) [Compound 93] | 4% | -5% | -18% | 7%
CN1[C@@H]2CC[C@H]1c1c(n(CCc3ccc(F)cc3)c3ccc(F)cc13)C2 [Compound 94, (+)-(7S,10R)-2-Fluoro-5-(4-fluorophenethyl)-11-methyl-5,6,7,8,9,10-hexahydro-7,10-iminocyclohept[b]indole] | 92% | 4% | 77% | 75%
CN1[C@H]2CC[C@@H]1c1c(n(CCc3ccc(F)cc3)c3ccc(F)cc13)C2 [Compound 95, (−)-(7R,10S)-2-Fluoro-5-(4-fluorophenethyl)-11-methyl-5,6,7,8,9,10-hexahydro-7,10-iminocyclohept[b]indole] | 55% | 8% | 82% | 55%
CN1[C@@H]2CC[C@H]1c1c(n(CCc3ccc(C(F)(F)F)nc3)c3ccccc13)C2 [Compound 97] | 26% | 11% | 19% | 97%
CN1[C@@H]2CC[C@H]1c1c(n(CC(C)(O)c3ccc(F)cc3)c3ccccc13)C2 (some centres unmarked) [Compound 99] | 21% | 6% | 20% | 75%
